# Measured values as given in paper PMC9607081 (Membranes, 2022).
# Tests used:
# [1] = tested on: human GlyR α1 subunit P96 (loopA) substituted with 2MeP; details: Table 2, P96 2MeP, n = 4
# Procedure: (§1) The cDNA for the human GlyR α1 subunit was in pGEMHE (ThermoFischer Scientific, Bishops Stortford, UK). Site-directed mutagenesis was performed using QuikChange (Agilent Technologies, Milton Keynes, UK) to generate the appropriate codon. For non-canonical amino acid mutants and conventional mutants generated by nonsense suppression, the site of interest was mutated to the TAG stop codon. Receptor mRNA was then prepared by in vitro runoff transcription using the Ambion T7 mMessage mMachine kit (ThermoFischer Scientific, Bishops Stortford, UK). Noncanonical amino acids were ligated to tRNA as previously described.
# (§2) Stage V-VI oocytes of Xenopus laevis were harvested and injected with RNAs as described previously. For nonsense suppression experiments, each cell was injected with 50–100 ng each of receptor mRNA and tRNA charged with the appropriate Pro analogue ~48 h before recording. For wild type and conventional mutants, each cell received a single injection of 10–25 ng of receptor mRNA ~24 h before recording. Injection volumes were 50–100 nL per cell.
# (§3) As a negative control for suppression experiments at each site, unligated tRNA was co-injected with mRNA in the same manner as charged tRNA. […] Pro recovery (injecting tRNA charged with Pro to regenerate a wild type channel via nonsense suppression) was used alongside Pro analogues as a positive control.
# (§4) Two-electrode voltage clamping of Xenopus oocytes was performed using standard electrophysiological procedures as previously, using an OpusXpress system (Axon Instruments, Inc., Union City, CA, USA). All experiments were performed at 22–25 °C. […] The holding potential was −60 mV unless otherwise specified. […] Data were analysed using Prism (GraphPad Software Inc., San Diego, CA, USA), fitting concentration-response data to the four-parameter logistic equation. Statistical analysis was performed using ANOVA with a Dunnett’s multiple comparisons post test.
# [2] = biological target: human GlyR α1 subunit P230 (M1) substituted with Vah (Homo sapiens, UniProt P23415); details: Table 2, n = 4
# Procedure: as §1, §2, §3, §4
# [3] = biological target: human GlyR α1 subunit P30 (α1β1L) substituted with Pro (Homo sapiens, UniProt P23415); details: Table 2, n = 6
# Procedure: as §1, §2, §3, §4
# [4] = tested on: human GlyR α1 subunit P96 (loopA) substituted with CFP
# Procedure: as §1, §2, §3, §4
# [5] = tested on: human GlyR α1 subunit P230 (M1) substituted with 2MeP; details: Table 2, P230 2MeP, n = 4
# Procedure: as §1, §2, §3, §4
# [6] = tested on: human GlyR α1 subunit P230 (M1) substituted with 3MeP; details: Table 2, P230 3MeP, n = 4
# Procedure: as §1, §2, §3, §4
# [7] = tested on: human GlyR α1 subunit P30 (α1β1L) substituted with 3MeP; details: Table 2, P30 3MeP, n = 4
# Procedure: as §1, §2, §3, §4
# [8] = tested on: human GlyR α1 subunit P30 (α1β1L) substituted with Pip
# Procedure: as §1, §2, §3, §4
# [9] = tested on: human GlyR α1 subunit P30 (α1β1L) substituted with Vah
# Procedure: as §1, §2, §3, §4
# [10] = biological target: human GlyR α1 subunit P230 (M1) substituted with Pro (Homo sapiens, UniProt P23415); details: Table 2, n = 4
# Procedure: as §1, §2, §3, §4
# [11] = tested on: human GlyR α1 subunit P96 (loopA) substituted with TFP
# Procedure: as §1, §2, §3, §4
# [12] = tested on: human GlyR α1 subunit P96 (loopA) substituted with 3MeP; details: Table 2, P96 3MeP, n = 4
# Procedure: as §1, §2, §3, §4
# [13] = biological target: T1, human GlyR α1 subunit P30A (Homo sapiens, UniProt P23415, P58A); assay: Two-electrode voltage clamp of Xenopus oocytes expressing P30A GlyR; format: cell-based; details: n = 5
# T1 construct: expressed in transfected cells; host or cells: Xenopus laevis oocytes injected with receptor mRNA
# Procedure: Injection volumes were 50–100 nL per cell.
# All experiments were performed at 22–25 °C. […] The holding potential was −60 mV unless otherwise specified.
# [14] = Table 2, nonsense suppression, n = 4
# T1 sequence (P23415 29-457 P58A): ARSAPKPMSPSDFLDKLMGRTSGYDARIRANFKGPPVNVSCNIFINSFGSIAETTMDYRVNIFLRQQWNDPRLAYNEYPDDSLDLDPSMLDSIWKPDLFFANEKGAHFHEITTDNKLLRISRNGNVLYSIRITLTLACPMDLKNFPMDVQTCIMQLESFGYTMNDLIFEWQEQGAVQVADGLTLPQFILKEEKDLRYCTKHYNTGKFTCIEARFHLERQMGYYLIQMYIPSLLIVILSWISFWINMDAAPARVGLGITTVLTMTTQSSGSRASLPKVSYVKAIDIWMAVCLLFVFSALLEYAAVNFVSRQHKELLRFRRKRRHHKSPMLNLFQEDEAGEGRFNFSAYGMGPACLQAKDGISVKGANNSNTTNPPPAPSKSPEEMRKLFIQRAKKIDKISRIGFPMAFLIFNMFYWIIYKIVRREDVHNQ
# Sequence of human GlyR α1 subunit P230 (M1) substituted with Pro (P23415 29-457): as the sequence (P23415 29-457 P58A) above, with A30P counted along it
# Sequence of human GlyR α1 subunit P30 (α1β1L) substituted with Pro (P23415 29-457): as the sequence (P23415 29-457 P58A) above, with A30P counted along it
# Sequence of human GlyR α1 subunit P230 (M1) substituted with Vah (P23415 29-250 limits assumed): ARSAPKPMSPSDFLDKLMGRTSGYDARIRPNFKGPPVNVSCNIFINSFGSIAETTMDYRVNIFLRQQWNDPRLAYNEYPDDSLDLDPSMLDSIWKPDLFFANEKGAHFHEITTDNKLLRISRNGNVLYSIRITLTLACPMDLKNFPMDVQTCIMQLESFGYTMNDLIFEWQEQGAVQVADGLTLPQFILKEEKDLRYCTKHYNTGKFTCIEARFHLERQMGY
smiles,measurement,setting,value
"NCC(=O)O [Gly, glycine]",nH,[1],2.8 ± 0.5
same,EC50,[1]; nonsense suppression,254 µM
same,pEC50,[1]; nonsense suppression,3.596 ± 0.03 M
same,nH,[2],2.6 ± 0.4
same,nH,[3],2.9 ± 1.2
same,nH,"[4]; Table 2, n = 4",3.2 ± 0.7
same,EC50,[4]; [14],145 µM
same,pEC50,[4]; [14],3.840 ± 0.05 M
same,nH,[5],1.6 ± 0.5
same,EC50,[5]; nonsense suppression,177 µM
same,pEC50,[5]; nonsense suppression,3.751 ± 0.08 M
same,nH,[6],1.1 ± 0.4
same,EC50,[6]; nonsense suppression,34 µM
same,pEC50,[6]; nonsense suppression,4.471 ± 0.08 M
same,nH,[7],3.0 ± 2.7
same,EC50,[7]; nonsense suppression,8.9 µM
same,pEC50,[7]; nonsense suppression,5.046 ± 0.05 M
same,nH,"[8]; Table 2, n = 4",2.7 ± 0.7
same,EC50,[8]; [14],36 µM
same,pEC50,[8]; [14],4.439 ± 0.03 M
same,nH,"[9]; Table 2, n = 4",3.8 ± 0.5
same,EC50,[9]; [14],21 µM
same,pEC50,[9]; [14],4.684 ± 0.03 M
same,nH,[10],2.5 ± 0.9
same,nH,"[11]; Table 2, n = 4",2.9 ± 0.7
same,EC50,[11]; [14],127 µM
same,pEC50,[11]; [14],3.898 ± 0.03 M
same,nH,[12],3.0 ± 0.2
same,EC50,[12]; nonsense suppression,514 µM
same,pEC50,[12]; nonsense suppression,3.289 ± 0.02 M
"NCCS(=O)(=O)O [Tau, taurine]",EC50,[13],1230 µM
same,ImaxTau/ImaxGly,[13],60 ± 5%
